Reference: patent US20080234188A1, “Antimicrobial Peptides” (The Hospital for Sick Children, priority 2001, published 2008)
Values after ≈ are worked out from the molar mass of the structure shown. Where a SMILES comes first, the peptide text is derived from it.

Tests used:
[1] = tested on: E. coli DC2; test: Assay of antibacterial activity (MIC), E. coli DC2; assay type: cell-based, Escherichia coli; conditions: Table 5A
Method in brief: (§1)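 Broth microdilution MIC in Mueller Hinton broth, 2−7×10^5 CFU/ml inoculum from overnight cultures. Peptides serially doubled in 0.01% acetic acid, 0.2% BSA at 10× test concentration. Incubation 37° C for 18-24 h, rechecked at 40-48 h; growth read visually and at 600 nm.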

[2] = tested on: Rabbit RBC; assay type: cell-based
Protocol: (§2) Erythrocytes from heparinized rabbit or human blood were washed three times with phosphate-buffered saline (PBS; 5 mM phosphate buffer, 0.14 M saline, pH 7.3), and centrifuged at 1000×g for 15 min at 4° C. The erythrocytes were diluted with PBS to 4% (v/v). Dilutions of the peptides in PBS were plated in 100 μl volumes in microtitre plates (Costar 3790, polypropylene) together with 100μl of the erythrocyte suspension. PBS was used as control and 100% lysis was determined in 0.1% Triton X-100. The plates were incubated at 37° C. for 1 h and then centrifuged at 1000×g for 5 min. 100 μl aliquots of the supernatant were transferred to microtitre plates (Nunc, polystyrene), and the release of hemoglobin was monitored by measurement of the absorbance at 540 nm in a microplate reader. The results are shown in Table 6, for peptide concentrations of […]. With only one or two exceptions, little or no hemolysis was seen.

[3] = tested on: Human RBC; assay type: cell-based
Protocol: as §2

[4] = tested on: S. aureus ATCC25923; assay type: cell-based, Staphylococcus aureus
Excerpt: (§3) The bacterial strains used were E. coli C498, E. coli C500, Escherichia coli UB1005 and its antibiotic supersusceptible derivative DC2 (22); a clinical isolate of Staphylococcus epidermidis (C621); coryneform bacterial strain Corynebacterium xerosis (C875); and E. coli ATCC 25922, Staphylococcus aureus ATCC 25923, Enterococcus faecalis ATCC 29212, Bacillus subtilis ATCC 6633 and Pseudomonas aeruginosa ATCC 27853, all from American Type Culture Collection.
(§4) Peptide antibacterial activity was assessed by the method of R. Hancock et al. (Wu & Hancock (1999), J. Biol. Chem., v. 274, pp. 29-35). Test strains of bacteria from Mueller Hinton agar (MHA) plates were inoculated into 5 ml Mueller Hinton Broth (MHB) in tubes and grown overnight at 37° C. on a shaker (180 rpm). Serial dilutions of test peptides (at 10 times the required test concentrations) were made in 0.01% acetic acid, 0.2% BSA, in polypropylene or coated glass tubes as follows: the test peptide was (a) dissolved in distilled water at 20 times the required maximum concentration (enough final volume for all tests to be performed on a given day); (b) diluted into an equal volume of 0.02% acetic acid, 0.4% BSA to give 10 times the required maximum concentration; (c) serial doubling dilutions were performed in 0.01% acetic acid, 0.2% BSA to provide serial dilutions of peptides at 10 times the required test concentrations, e.g., 640, 320, 160, . . . 2.5 μg/ml. (No deleterious effects of long-term storage of peptides in these media have been detected). Overnight bacterial cultures were diluted in MHB to give 2−7×10^5 colony forming units/ml. Bacterial suspension (100 μl) was dispensed in each well; controls without bacteria were maintained in parallel. To each well was added 11 μl of 10× test peptide and plates were incubated at 37° C. for 18-24 hours, and checked again at 40-48 hours. Plates were read visually and at 600 nm in a microplate reader (Molecular Devices).
(§5) A further number of the peptides of the invention were tested for antimicrobial activity against a range of Gram-positive and Gram-negative bacteria by the assay described immediately before Example 1.

[5] = tested on: C498: E. coli, wild type strain; assay type: cell-based; conditions: C498: , wild type strain
Excerpt: as §3, §4
(§6) were synthesized. The antibacterial activity of these peptides was determined against both Gram-positive bacteria ([…], Corynebacterium xerosis) and Gram-negative bacteria (various strains of E. coli). The results are shown in Table 2, along with the average hydrophobicity of each peptide, calculated as described herein.

[6] = tested on: C500: E. coli, antibiotic strain; assay type: cell-based; conditions: C500: , antibiotic strain
Excerpt: as §3, §4, §6

[7] = tested on: E. coli UB1005; assay type: cell-based, Escherichia coli; conditions: UB1005
Method in brief: as §1

[8] = tested on: Staphylococcus epidermidis (C621); assay type: cell-based; conditions: C621
Method in brief: (§7)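 Broth microdilution in Mueller Hinton Broth, inoculum 2−7×10^5 CFU/ml. Peptides serially doubled in 0.01% acetic acid, 0.2% BSA and added at 10× final concentration. Incubation 37° C for 18-24 h, rechecked at 40-48 h; growth read visually and at 600 nm.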

[9] = tested on: Corynebacterium xerosis (C875); assay type: cell-based
Method in brief: as §7

[10] = tested on: E. coli ATCC25922; assay type: cell-based
Excerpt: as §3, §4, §5

[11] = tested on: E. faecalis ATCC29212; assay type: cell-based, Enterococcus faecalis
Excerpt: as §3, §4, §5

[12] = tested on: P. aeruginosa ATCC27853; assay type: cell-based, Pseudomonas aeruginosa
Excerpt: as §3, §4, §5

[13] = tested on: B. subtilis ATCC6633; assay type: cell-based, Bacillus subtilis
Excerpt: as §3, §4, §5

SMILES | MIC E. coli DC2 [1] | Rabbit RBC (% lysis) 50 μM [2] | Rabbit RBC (% lysis) 200 μM [2] | Human RBC (% lysis) 50 μM [3] | Human RBC (% lysis) 200 μM [3] | MIC S. aureus ATCC25923 [4] | MIC C498 [5] | MIC C500 [6] | MIC E. coli UB1005 [7] | MIC S. epidermidis C621 [8] | MIC C875 [9] | MIC C. xerosis C875 [9] | MIC E. coli ATCC25922 [10] | MIC E. faecalis ATCC29212 [11] | MIC P. aeruginosa ATCC27853 [12] | MIC B. subtilis ATCC6633 [13] | MIC C621 [8]
C[C@H](NC(=O)[C@H](C)NC(=O)[C@H](Cc1ccccc1)NC(=O)[C@H](C)NC(=O)[C@H](C)NC(=O)[C@H](Cc1c[nH]c2ccccc12)NC(=O)[C@H](C)NC(=O)[C@H](C)NC(=O)[C@H](Cc1ccccc1)NC(=O)[C@H](C)NC(=O)[C@H](C)NC(=O)[C@H](CCCCN)NC(=O)[C@H](CCCCN)NC(=O)[C@H](CCCCN)NC(=O)[C@H](CCCCN)NC(=O)[C@H](CCCCN)NC(=O)[C@@H](N)CCCCN)C(N)=O [F17(K6), KKKKKKAAFAAWAAFAA-NH2] (H-KKKKKKAAFAAWAAFAA-NH2; N-terminus assumed) | 0.5 µM (≈ 0.918 µg/mL) | 0 % lysis | 1 % lysis | 0 % lysis | 0 % lysis | >32 µM | 0.5 µM (≈ 0.918 µg/mL) | <0.25 µM | 1 µM (≈ 1.84 µg/mL) | 4 µM (≈ 7.34 µg/mL) | 0.5 µM (≈ 0.918 µg/mL) | 0.5 µM (≈ 0.918 µg/mL) | 8 µM (≈ 14.7 µg/mL) | >32 µM | 16 µM (≈ 29.4 µg/mL) | 8 µM (≈ 14.7 µg/mL) | –
C[C@H](NC(=O)[C@H](C)NC(=O)[C@H](CCCCN)NC(=O)[C@H](CCCCN)NC(=O)[C@@H](N)CCCCN)C(=O)N[C@@H](C)C(=O)N[C@@H](Cc1ccccc1)C(=O)N[C@@H](C)C(=O)N[C@@H](C)C(=O)N[C@@H](Cc1c[nH]c2ccccc12)C(=O)N[C@@H](C)C(=O)N[C@@H](C)C(=O)N[C@@H](Cc1ccccc1)C(=O)N[C@@H](C)C(=O)N[C@@H](CCCCN)C(=O)N[C@@H](CCCCN)C(=O)N[C@@H](CCCCN)C(N)=O [Peptide F17, KKKAAAFAAWAAFAKKK-NH2] (H-KKKAAAFAAWAAFAKKK-NH2; N-terminus assumed) | 16 µM (≈ 29.4 µg/mL) | 0 % lysis | 2 % lysis | 0 % lysis | 0 % lysis | >32 µM | – | – | 32 µM (≈ 58.7 µg/mL) | >32 µM | – | 4 µM (≈ 7.34 µg/mL) | >32 µM | >32 µM | >32 µM | 16 µM (≈ 29.4 µg/mL) | –
C[C@H](NC(=O)[C@H](C)NC(=O)[C@H](Cc1ccccc1)NC(=O)[C@H](C)NC(=O)[C@H](C)NC(=O)[C@H](CCCNC(=N)N)NC(=O)[C@H](CCCNC(=N)N)NC(=O)[C@@H](N)CCCNC(=N)N)C(=O)N[C@@H](Cc1c[nH]c2ccccc12)C(=O)N[C@@H](C)C(=O)N[C@@H](C)C(=O)N[C@@H](Cc1ccccc1)C(=O)N[C@@H](C)C(=O)N[C@@H](C)C(=O)N[C@@H](CCCNC(=N)N)C(=O)N[C@@H](CCCNC(=N)N)C(=O)N[C@@H](CCCNC(=N)N)C(N)=O [Peptide F17R, RRRAAFAAWAAFAARRR-NH2] (H-RRRAAFAAWAAFAARRR-NH2; N-terminus assumed) | 1 µM (≈ 2 µg/mL) | 0 % lysis | 2 % lysis | 0 % lysis | 0 % lysis | >32 µM | 2 µM (≈ 4.01 µg/mL) | 0.5 µM (≈ 1 µg/mL) | 2 µM (≈ 4.01 µg/mL) | 4 µM (≈ 8.01 µg/mL) | 1 µM (≈ 2 µg/mL) | 1 µM (≈ 2 µg/mL) | 8 µM (≈ 16 µg/mL) | >32 µM | 16 µM (≈ 32.1 µg/mL) | 2 µM (≈ 4.01 µg/mL) | –
C[C@H](NC(=O)[C@H](C)NC(=O)[C@H](C)NC(=O)[C@H](Cc1ccccc1)NC(=O)[C@H](C)NC(=O)[C@H](CCCCN)NC(=O)[C@@H](N)CCCCN)C(=O)N[C@@H](C)C(=O)N[C@@H](C)C(=O)N[C@@H](Cc1ccccc1)C(=O)N[C@@H](C)C(=O)N[C@@H](C)C(=O)N[C@@H](Cc1c[nH]c2ccccc12)C(=O)N[C@@H](C)C(=O)N[C@@H](C)C(=O)N[C@@H](Cc1ccccc1)C(=O)N[C@@H](C)C(=O)N[C@@H](CCCCN)C(=O)N[C@@H](CCCCN)C(=O)N[C@@H](CCCCN)C(=O)N[C@@H](CCCCN)C(N)=O [Peptide F21] (H-KKAFAAAAAFAAWAAFAKKKK-NH2; N-terminus assumed) | 4 µM (≈ 8.78 µg/mL) | 1 % lysis | 3 % lysis | 0 % lysis | 0 % lysis | >32 µM | 8 µM (≈ 17.6 µg/mL) | 4 µM (≈ 8.78 µg/mL) | 8 µM (≈ 17.6 µg/mL) | 8 µM (≈ 17.6 µg/mL) | – | 0.5 µM (≈ 1.1 µg/mL) | 32 µM (≈ 70.3 µg/mL) | >32 µM | >32 µM | 2 µM (≈ 4.39 µg/mL) | 8 to 16 µM
C[C@H](NC(=O)[C@H](C)NC(=O)[C@H](C)NC(=O)[C@H](CCCCN)NC(=O)[C@@H](N)CCCCN)C(=O)N[C@@H](C)C(=O)N[C@@H](Cc1ccccc1)C(=O)N[C@@H](C)C(=O)N[C@@H](C)C(=O)N[C@@H](Cc1ccccc1)C(=O)N[C@@H](C)C(=O)N[C@@H](C)C(=O)N[C@@H](Cc1c[nH]c2ccccc12)C(=O)N[C@@H](Cc1ccccc1)C(=O)N[C@@H](C)C(=O)N[C@@H](C)C(=O)N[C@@H](Cc1ccccc1)C(=O)N[C@@H](C)C(=O)N[C@@H](C)C(=O)N[C@@H](C)C(=O)N[C@@H](C)C(=O)N[C@@H](CCCCN)C(=O)N[C@@H](CCCCN)C(=O)N[C@@H](CCCCN)C(=O)N[C@@H](CCCCN)C(N)=O [[F(4)25]] (H-KKAAAAFAAFAAWFAAFAAAAKKKK-NH2; N-terminus assumed) | – | 14 % lysis | 34 % lysis | 17 % lysis | 42 % lysis | 32 µM (≈ 81.8 µg/mL) | 16 µM (≈ 40.9 µg/mL) | 4 µM (≈ 10.2 µg/mL) | 8 µM (≈ 20.4 µg/mL) | 4 µM (≈ 10.2 µg/mL) | 0.25 µM (≈ 0.639 µg/mL) | – | 16 µM (≈ 40.9 µg/mL) | >32 µM | 8 µM (≈ 20.4 µg/mL) | 2 µM (≈ 5.11 µg/mL) | 8 µM (≈ 20.4 µg/mL)
